Laboratory results from publication PMC5096027, “Naturally Inspired Peptide Leads: Alanine Scanning Reveals an Actin‐Targeting Thiazole Analogue of Bisebromoamide” (Chembiochem, 2016).
Numbered stars: 1 amine (or outer) side, 2 acyl side, 3 side chain; on linkers, the order of the positions; unused ones are H or OH. Square brackets hold non-standard residues; d marks the D form. Peptide text beside a SMILES is read from it. * marks the point of attachment. X1 = C[C@H]1C[C@@H](c2nc(C(=O)[*:2])cs2)N([*:1])C1; Pyrrolidine(2S-propanoyl) = CCC(=O)[C@@H]1CCCN1*; dNMeTyr(3-Br) = CN[C@H](Cc1ccc(O)c(Br)c1)C(=O)O; NMeF = CN[C@@H](Cc1ccccc1)C(=O)O; Piv = CC(C)(C)C(=O)*

How the values were obtained:
HCT116 cells [1] = test: Cytoskeletal morphology assay (ImageXpress high-content imaging, F-actin/DAPI); type: cell-based, human; conditions: 1 μM, 48 h, F-actin (phalloidin) and DAPI staining
Excerpt: Perhaps most striking in terms of identifying a mechanism for the cytotoxicity were the morphological images collected on an ImageXpress high content microscope (Figure 2). […] The morphological changes induced by Bis1 and Bis2 are in good accord with those previously reported for the parent compound (BBA) in HeLa cells,8 and indicate that the switch from thiazoline to thiazole to facilitate the generation of these Tz‐BBA analogues by SPPS has not impaired activity.
Figure 2 HCT116 cytoskeletal morphology after treatment with 1 μM Bis1–6 for 48 h. Cells were permeabilised and fixed in paraformaldehyde prior to staining nuclei (DAPI, blue) and filamentous‐actin fibres (F‐actin; phalloidin conjugated to Alexa Fluor […], green). Images were acquired in an automated ImageXpress microXL high‐content imaging platform (Molecular Devices) with a 20× objective; images show HCT116 cell morphology for DMSO (control) and each treatment group: A) DMSO; B) cytochalasin D; C) Bis1; D) Bis2; E) Bis3 (representative also for Bis4); F) Bis 6 (representative also for Bis5).
(§1) High‐content imaging methods: Kinetic cell growth and apoptosis assays were performed with an IncuCyte ZOOM live‐cell imaging system (Essen Bioscience, Ann Arbor, MI). Cytoskeletal morphology assays were performed on an ImageXpress Micro High‐Content Analysis System (Molecular Devices, Sunnyvale, CA).
Cytoskeletal morphology assays: Cells were seeded in a 96‐well plates (5000 cells per well) and incubated for 24 h before treatment. The medium was then replaced with fresh medium containing Bis1–6 as eight‐point half‐log doses and incubated for 48 h. Control cells were incubated with DMSO (0.1 % v/v). All images were acquired on an automated ImageXpress Micro XL high‐content imaging platform (Molecular Devices) with a ×20 Plan Fluor ELWD Ph1 DM objective (Nikon) and a 16‐bit camera (binning resolution of 1). Four separate images per well were acquired by using laser‐based autofocus parameters optimised for cell plates and cell type. All immunostaining procedures were performed at room temperature in 96‐well plates (100 μL unless otherwise stated). Cells were fixed by addition of paraformaldehyde (8 % in PBS; final concentration 4 %) and incubated for 20 min. Cells were washed three times with PBS then incubated with a mixture of phalloidin conjugated to Alexa Fluor […] (Molecular Probes (Thermo Fisher) A12379; diluted 1:500) and 4′,6‐diamidino‐2‐phenylindole (DAPI; Sigma–Aldrich D8417) for 45 min in the absence of light. Cells were washed three times with PBS before imaging. Representative images are in Figure 2.

IRS‐1 = test: Reverse phase protein array (RPPA) profiling, IRS-1 total protein expression; type: cell-based, human; conditions: HCT116 cell lysates, 3.0–0.03 μM, 24 h exposure, normalised to DMSO
Excerpt: (§2) The only clearly discernible inhibition of pathway signalling was for protein kinase C (PKC); there was discernible reduction in total protein expression of the insulin receptor substrate protein IRS‐1 (Figure S2).
(§3) Reverse phase protein array methods: The abundance of total protein and phosphorylated protein epitopes was quantified by using a Zeptosens reverse phase protein microarray platform (Bayer Technology Services, Leverkusen, Germany) as previously described.30 Briefly, HCT116 cells were seeded (4×10^5 cells per well) in six‐well plates. Cells were pre‐incubated in treatment‐free medium for 48 h prior to addition of Bis1–3 at six‐point half‐log doses (3.0–0.03 μM) and incubation for 30 min, 3 h and 24 h. Control samples were treated with medium containing DMSO (0.1 % v/v). The medium was then removed, and the cells were lysed by incubation with CLB1 buffer (Zeptosens) for 30 min. Cell lysates were normalised to a uniform protein concentration with CSBL1 spotting buffer (Zeptosens) prior to preparing a final fourfold concentration series of ([…] mL^−1). The concentration series of each sample was printed onto ZeptoChip protein microarray chips (Zeptosens) under controlled conditions (50 % humidity, 14 °C) by using a Nano‐Plotter NP21/E non‐contact printer (GeSIM, Radeberg, Germany). Single droplets (400 pL) were deposited onto the chips. A reference grid (four columns, 22 rows) of Alexa Fluor 647‐conjugated BSA (Invitrogen) was spotted onto each sub‐array; samples were spotted between reference columns. […] Microarray images representing the longest exposure without saturation of the fluorescence signal were automatically selected for analysis in ZeptoView 3.1 software. A weighted linear‐fit through the fourfold concentration series was used to calculate relative fluorescence intensity (RFI). […]
(§4) Figure S2. […] The mechanism-of-action of Tz-BBA analogues Bis1-3 at the post translational pathway level was evaluated against a panel of 62 protein and phospho-protein analytes by reverse phase protein array (RPPA). […]

protein kinase C (PKC) = test: Reverse phase protein array (RPPA) profiling, PKC signalling; type: cell-based, human; conditions: HCT116 cell lysates, 3.0–0.03 μM, 24 h exposure, normalised to DMSO
Excerpt: as §2, §3, §4

HCT116 cells [2] = test: IncuCyte ZOOM kinetic cell growth (confluence) assay; type: cell-based, human; conditions: half-log dose response, kinetic readout every 3 h
Procedure: (§5) The effects of Bis1–6 on the growth of HCT116 cells (human colon cancer cell‐line) were assessed on an IncuCyte Zoom platform. HCT116 cells express an activating Ras mutation, and represent an aggressive and common form of human colon cancer.26 Dasatinib (dual Src‐Abl tyrosine kinase inhibitor) and DMSO (vehicle, 0.1 % v/v) were used as controls. […] The relative activity of all the analogues was further evaluated by testing each in an eight‐point half‐log dose–response assay (alamarBlue cell viability assay).
as §1
Apoptosis assay: Cells were seeded in a 96‐well plate (5000 cells per well) and incubated for 24 h before treatment. […] Apoptosis was detected with the cell‐permeable caspase biosensor NucView 488 (Biotium, Hayward, CA), which was added (1 μM) at the same time as compound. IncuCyte imaging software automatically quantifies cell density and NucView/Caspase positive objects at time points following compound addition. This provided a kinetic readout of cell growth and apoptosis induction in cells after addition of each analogue. […]

HCT116 cells [3] = test: alamarBlue cell viability assay; type: cell-based, human; conditions: 72 h incubation, eight-point half-log doses 0.003–10 μM, alamarBlue fluorescence, relative to DMSO control, n=3
Procedure: as §5
Figure 1 HCT116 cell viability. Dose–response curves determined by an alamarBlue cell viability assay after incubation with Bis1–6 (0.003–10 μM) for 72 h. Conversion of the alamarBlue reagent to the activated fluorescent resorufin cell viability indicator was calculated for DMSO (vehicle) and compound‐treated samples. Viability is expressed relative to control (DMSO). Dose–response plots are mean±SD (n=3).
Cell viability assay: HCT116 cells were seeded in a 96‐well plate (5000 cells per well) and incubated for 48 h before treatment. The medium (DMEM with 10 % foetal calf serum and 2 mM glutamine) was replaced with fresh medium containing each of Bis1–6 as eight‐point half‐log doses, and incubated for 3 days. alamarBlue (Invitrogen) cell viability reagent (10 % v/v) was added, and the plate was incubated for 1 h. Fluorescence was detected with an EnVision multilabel reader (λ ex=540 nm, λ em=590 nm; PerkinElmer). All data were normalised to DMSO‐treated cells, and curves were fitted in GraphPad Prism with a sigmoidal variable‐slope curve.

ERK and Akt = test system: ERK and Akt; parameters: method as in PMID 24133625; conditions: two renal cancer cell lines; cited from earlier work
[4] = test system: panel of 39 human cancer cell lines; parameters: method as in PMID 19803465; conditions: cited from earlier work
ERK = test system: ERK; parameters: method as in PMID 19803465; conditions: NRK cells; cited from earlier work
HeLa S3 cells = test system: HeLa S3 cells; parameters: method as in PMID 19803465; conditions: cited from earlier work
actin‐filament = test system: actin‐filament; parameters: method as in PMID 21322638; conditions: cited from earlier work

CCC(=O)[C@@H]1CCCN1C(=O)[C@H](Cc1ccccc1)N(C)C(=O)[C@@H](CC(C)C)NC(=O)c1csc([C@@H]2C[C@H](C)CN2C(=O)[C@@H](Cc2ccc(O)c(Br)c2)N(C)C(=O)[C@H](C)NC(=O)C(C)(C)C)n1 [Bis1, thiazole‐bisebromoamide] (Piv-A[dNMeTyr(3-Br)][X1][dL][NMeF]-{Pyrrolidine(2S-propanoyl)})
cytoskeletal morphological changes relative to DMSO control (HCT116 cells [1]): clear disruption and aggregation of F‐actin filaments together with reduced cell‐substrate adhesion
total protein expression of IRS-1 (RPPA) (IRS‐1): reduced expression of IRS‐1
PKC pathway signalling (RPPA) (protein kinase C (PKC)): reduced activity of PKC
repression of cell growth (confluence) (HCT116 cells [2]): most active

CCC(=O)[C@@H]1CCCN1C(=O)[C@H](Cc1ccccc1)N(C)C(=O)[C@H](C)NC(=O)c1csc([C@@H]2C[C@H](C)CN2C(=O)[C@@H](Cc2ccc(O)c(Br)c2)N(C)C(=O)[C@H](C)NC(=O)C(C)(C)C)n1 [Bis4] (Piv-A[dNMeTyr(3-Br)][X1]A[NMeF]-{Pyrrolidine(2S-propanoyl)})
cytoskeletal morphological changes relative to DMSO control (HCT116 cells [1]): more elongated cells with prominent F‐actin filaments and promotion of cell‐substrate adhesion
EC50 (HCT116 cells [3]): 178 nM

bisebromoamide [BBA]
phosphorylation of both ERK and Akt (ERK and Akt): inhibited
GI50 [4]: 40 nM
phosphorylation of ERK (ERK): inhibited
IC50 against HeLa S3 cells (HeLa S3 cells): 0.04 µg/mL
action on actin filaments (actin‐filament): actin‐filament stabiliser

CC(C)C[C@@H](NC(=O)c1csc([C@@H]2C[C@H](C)CN2C(=O)[C@@H](Cc2ccc(O)c(Br)c2)N(C)C(=O)[C@H](C)NC(=O)C(C)(C)C)n1)C(=O)N(C)[C@@H](Cc1ccccc1)C(=O)N[C@@H](C)C(N)=O [Bis2] (Piv-A[dNMeTyr(3-Br)][X1][dL][NMeF]A-NH2)
cytoskeletal morphological changes relative to DMSO control (HCT116 cells [1]): clear disruption and aggregation of F‐actin filaments together with reduced cell‐substrate adhesion
total protein expression of IRS-1 (RPPA) (IRS‐1): reduced expression of IRS‐1
PKC pathway signalling (RPPA) (protein kinase C (PKC)): reduced activity of PKC
EC50 (HCT116 cells [3]): 71 nM

CCC(=O)[C@@H]1CCCN1C(=O)[C@H](C)NC(=O)[C@@H](CC(C)C)NC(=O)c1csc([C@@H]2C[C@H](C)CN2C(=O)[C@@H](Cc2ccc(O)c(Br)c2)N(C)C(=O)[C@H](C)NC(=O)C(C)(C)C)n1 [Bis3] (Piv-A[dNMeTyr(3-Br)][X1][dL]A-{Pyrrolidine(2S-propanoyl)})
cytoskeletal morphological changes relative to DMSO control (HCT116 cells [1]): more elongated cells with prominent F‐actin filaments and promotion of cell‐substrate adhesion
total protein expression of IRS-1 (RPPA) (IRS‐1): more affected by Bis1 and Bis2 than by Bis3
PKC pathway signalling (RPPA) (protein kinase C (PKC)): more affected by Bis1 and Bis2 than by Bis3
EC50 (HCT116 cells [3]): 483 nM
